# Assay results as given in patent publication US20240101531A1, “PYRIDINAMINE DERIVATIVES AND THEIR USE AS POTASSIUM CHANNEL MODULATORS” (Xenon Pharmaceuticals Inc., priority 2022, published 2024).
# Molecular target: human KV7.2/KV7.3 (Homo sapiens (Human), UniProt O43525+O43526)
# Test: Potassium flux assay (IPG-2 AM dye)
# Type: cell-based
# Settings: TREX HEK 293 or HEK 293 cells expressing human KV7.2/KV7.3; arithmetic mean values
# How it was run: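 HEK 293 or TREX HEK 293 cells stably expressing human KV7.2/KV7.3 (tetracycline-induced where needed), loaded with IPG-2 AM, then compound for 20 min at room temperature. Flux triggered by K challenge buffer (10 mM KCl, pH 7.4), read at 530/558 nm; EC50 from 16-point 2-fold series from 30 μM, normalised to DMSO and reference modulator.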
row,Structure (SMILES),EC50 [nM]
1,"FC(F)CN1CCC(Oc2ccc3c(Nc4ccc(Cl)nc4)nccc3c2)CC1 [Example 315, N-(6-chloropyridin-3-yl)-6-((1-(2,2-difluoroethyl)piperidin-4-yl)oxy)isoquinolin-1-amine]",1000 to 10000
2,"CC(=O)N[C@H]1CC[C@@H](Oc2ccc3c(Nc4ccc(Cl)nc4)nccc3c2)CC1 [Example 316, N-(cis-4-((1-((6-chloropyridin-3-yl)amino)isoquinolin-6-yl)oxy)cyclohexyl)acetamide]",< 1000
3,"CC(=O)N[C@H]1CC[C@H](Oc2ccc3c(Nc4ccc(Cl)nc4)nccc3c2)CC1 [Example 317, N-(trans-4-((1-((6-chloropyridin-3-yl)amino)isoquinolin-6-yl)oxy)cyclohexyl)acetamide]",1000 to 10000
4,"CC(=O)N1CCC(COc2ccc3c(Nc4ccc(Cl)nc4)nccc3c2)CC1 [Example 318, 1-(4-(((1-((6-chloropyridin-3-yl)amino)isoquinolin-6-yl)oxy)methyl)piperidin-1-yl)ethan-1-one]",< 1000
5,"C[C@@H]1CN(CCOc2ccc3c(Nc4ccc(Cl)nc4)nccc3c2)C[C@H](C)O1 [Example 319, N-(6-chloropyridin-3-yl)-6-(2-((2S,6R)-2,6-dimethylmorpholino)ethoxy)isoquinolin-1-amine]",1000 to 10000
6,"COC(=O)C1COCCN1CCOc1ccc2c(Nc3ccc(Cl)nc3)nccc2c1 (stereo not drawn) [Example 320, methyl 4-(2-((1-((6-chloropyridin-3-yl)amino)isoquinolin-6-yl)oxy)ethyl)morpholine-3-carboxylate]",1000 to 10000
7,"C[C@H]1COCCN1CCOc1ccc2c(Nc3ccc(Cl)nc3)nccc2c1 [Example 321, (S)-N-(6-chloropyridin-3-yl)-6-(2-(3-methylmorpholino)ethoxy)isoquinolin-1-amine]",1000 to 10000
8,"C[C@@H]1COCCN1CCOc1ccc2c(Nc3ccc(Cl)nc3)nccc2c1 [Example 322, (R)-N-(6-chloropyridin-3-yl)-6-(2-(3-methylmorpholino)ethoxy)isoquinolin-1-amine]",1000 to 10000
9,"CC1CN(CCOc2ccc3c(Nc4ccc(Cl)nc4)nccc3c2)CCO1 (stereo not drawn) [Example 323, N-(6-chloropyridin-3-yl)-6-(2-(2-methylmorpholino)ethoxy)isoquinolin-1-amine]",1000 to 10000
10,"Cc1ncc(Nc2nccc3cc(OCc4cnn(C)c4)ccc23)cc1O [Example 324, 2-methyl-5-((6-((1-methyl-1H-pyrazol-4-yl)methoxy)isoquinolin-1-yl)amino)pyridin-3-ol]",1000 to 10000
11,"FC(F)(F)CN1CC(Oc2ccc3c(Nc4ccc(Cl)nc4)nccc3c2)C1 [Example 325, N-(6-chloropyridin-3-yl)-6-((1-(2,2,2-trifluoroethyl)azetidin-3-yl)oxy)isoquinolin-1-amine]",1000 to 10000
12,"FC(F)C1(COc2ccc3c(Nc4ccc(Cl)nc4)nccc3c2)CC1 [Example 326, N-(6-chloropyridin-3-yl)-6-((1-(difluoromethyl)cyclopropyl)methoxy)isoquinolin-1-amine]",< 1000
13,"FC(F)C1(COc2ccc3c(Nc4ccc(Cl)nc4)nccc3c2)COC1 [Example 327, N-(6-chloropyridin-3-yl)-6-((3-(difluoromethyl)oxetan-3-yl)methoxy)isoquinolin-1-amine]",< 1000
14,"CCC1(COc2ccc3c(Nc4ccc(Cl)nc4)nccc3c2)COC1 [Example 328, N-(6-chloropyridin-3-yl)-6-((3-ethyloxetan-3-yl)methoxy)isoquinolin-1-amine]",< 1000
15,"OCC1(COc2ccc3c(Nc4ccc(Cl)nc4)nccc3c2)COC1 [Example 329, (3-(((1-((6-chloropyridin-3-yl)amino)isoquinolin-6-yl)oxy)methyl)oxetan-3-yl)methanol]",1000 to 10000
16,"OC12CC3CC(C1)CC(Oc1ccc4c(Nc5ccc(Cl)nc5)nccc4c1)(C3)C2 [Example 331, 3-((1-((6-chloropyridin-3-yl)amino)isoquinolin-6-yl)oxy)adamantan-1-ol]",< 1000
17,"Clc1ccc(Nc2nccc3cc(OCC4CC45CCC5)ccc23)cn1 (stereo not drawn) [Example 332, N-(6-chloropyridin-3-yl)-6-(spiro[2.3]hexan-1-ylmethoxy)isoquinolin-1-amine]",1000 to 10000
18,"N#CC1(COc2ccc3c(Nc4ccc(Cl)nc4)nccc3c2)CC2(COC2)C1 [Example 333, 6-(((1-((6-chloropyridin-3-yl)amino)isoquinolin-6-yl)oxy)methyl)-2-oxaspiro[3.3]heptane-6-carbonitrile]",< 1000
19,"Clc1ccc(Nc2nccc3cc(OCc4cn[nH]c4)ccc23)cn1 [Example 334, 6-((1H-pyrazol-4-yl)methoxy)-N-(6-chloropyridin-3-yl)isoquinolin-1-amine]",< 1000
20,"CC(Oc1ccc2c(Nc3ccc(Cl)nc3)nccc2c1)c1cn[nH]c1 (stereo not drawn) [Example 335, 6-(1-(1H-pyrazol-4-yl)ethoxy)-N-(6-chloropyridin-3-yl)isoquinolin-1-amine]",1000 to 10000
21,"COCCn1cc(COc2ccc3c(Nc4ccc(Cl)nc4)nccc3c2)cn1 [Example 336, N-(6-chloropyridin-3-yl)-6-((1-(2-methoxyethyl)-1H-pyrazol-4-yl)methoxy)isoquinolin-1-amine]",1000 to 10000
22,"Clc1ccc(Nc2nccc3cc(OCc4c[nH]nc4Cl)ccc23)cn1 [Example 337, 6-((3-chloro-1H-pyrazol-4-yl)methoxy)-N-(6-chloropyridin-3-yl)isoquinolin-1-amine]",1000 to 10000
23,"Cc1n[nH]c(C)c1COc1ccc2c(Nc3ccc(Cl)nc3)nccc2c1 [Example 338, N-(6-chloropyridin-3-yl)-6-((3,5-dimethyl-1H-pyrazol-4-yl)methoxy)isoquinolin-1-amine]",1000 to 10000
24,"Cc1ncc(Nc2nccc3cc(O[C@H]4CCC[C@@H](O)C4)ccc23)cn1 [Example 339, (1R,3S)-3-((1-((2-methylpyrimidin-5-yl)amino)isoquinolin-6-yl)oxy)cyclohexan-1-ol]",< 1000
25,"Cc1ncc(Nc2nccc3cc(O[C@@H]4CCC[C@H](O)C4)ccc23)cn1 [Example 340, (1 S,3R)-3-((1-((2-methylpyrimidin-5-yl)amino)isoquinolin-6-yl)oxy)cyclohexan-1-ol]",< 1000
26,"CC1(CCc2ccc3c(Nc4ccc(Cl)nc4)nccc3c2)COC1 [Example 341, N-(6-chloropyridin-3-yl)-6-(2-(3-methyloxetan-3-yl)ethyl)isoquinolin-1-amine]",1000 to 10000
27,"N#C[C@H]1CCC[C@H](Oc2ccc3c(Nc4ccc(Cl)nc4)nccc3c2)C1 [Example 342, (1 S,3S)-3-((1-((6-chloropyridin-3-yl)amino)isoquinolin-6-yl)oxy)cyclohexane-1-carbonitrile]",1000 to 10000
28,"N#C[C@@H]1CCC[C@H](Oc2ccc3c(Nc4ccc(Cl)nc4)nccc3c2)C1 [Example 343, (1R,3S)-3-((1-((6-chloropyridin-3-yl)amino)isoquinolin-6-yl)oxy)cyclohexane-1-carbonitrile]",1000 to 10000
29,"N#C[C@@H]1CCC[C@@H](Oc2ccc3c(Nc4ccc(Cl)nc4)nccc3c2)C1 [Example 344, (1R,3R)-3-((1-((6-chloropyridin-3-yl)amino)isoquinolin-6-yl)oxy)cyclohexane-1-carbonitrile]",1000 to 10000
30,"N#C[C@H]1CCC[C@@H](Oc2ccc3c(Nc4ccc(Cl)nc4)nccc3c2)C1 [Example 345, (1 S,3R)-3-((1-((6-chloropyridin-3-yl)amino)isoquinolin-6-yl)oxy)cyclohexane-1-carbonitrile]",1000 to 10000
